# Reference: patent US12403184B2, “Compositions and methods for treating neurodegenerative disroders” (priority 2018, dated 2025)
# Where no end group is shown, it is not given here.
# Experiments:
# ATAD3A = target: T1, ATAD3A (Mus musculus, UniProt Q925I1); test: ATAD3A dimerization by western blot, Neuro2A cells; type: cell-based; details: Neuro2a cells exposed to 3-NP, non-reducing conditions
# T1 construct: endogenous in cells; host or cells: Neuro2A cells
# T1 sequence (Q925I1 1-591): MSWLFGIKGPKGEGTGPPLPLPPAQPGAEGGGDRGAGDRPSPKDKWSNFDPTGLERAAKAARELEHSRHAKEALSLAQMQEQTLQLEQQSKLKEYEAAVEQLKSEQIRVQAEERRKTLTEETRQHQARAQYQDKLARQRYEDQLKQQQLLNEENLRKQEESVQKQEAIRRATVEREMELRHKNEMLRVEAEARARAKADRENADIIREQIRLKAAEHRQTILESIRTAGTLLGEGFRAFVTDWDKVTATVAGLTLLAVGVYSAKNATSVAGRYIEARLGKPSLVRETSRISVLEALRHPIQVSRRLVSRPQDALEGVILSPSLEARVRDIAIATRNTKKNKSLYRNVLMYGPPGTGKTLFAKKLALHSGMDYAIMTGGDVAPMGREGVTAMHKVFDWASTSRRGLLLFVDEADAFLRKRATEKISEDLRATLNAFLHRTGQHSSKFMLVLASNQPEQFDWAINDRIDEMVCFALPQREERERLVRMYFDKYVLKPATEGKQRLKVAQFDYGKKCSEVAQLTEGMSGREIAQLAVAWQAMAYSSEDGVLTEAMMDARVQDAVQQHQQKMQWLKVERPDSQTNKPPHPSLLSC
# Experimental: To analyze dimerization of ATAD3A under non-reducing conditions, the cells or tissues were harvested and lysed with total lysates buffer. An equal amount of proteins was subject to 8% SDS-PAGE analysis in the presence or absence of β-mercaptoethanol (β-ME). For in vitro BMH crosslinking, the cell lysates were incubated with 1 mM BMH at r.t. for up to 25 min and quenched with 0.1% β-ME, followed by SDS-PAGE analysis. For in-vivo crosslinking, the cells were treated with cell-permeable crosslinker BMH (1 mM) for 20 min at 37° C. After crosslinking, the cells were quenched in PBS with 0.1% β-ME. For DSP crosslinking, the cells were treated with cell-permeable crosslinker for 5 min at 37° C., followed by quenching and washing with 10 mM Glycine in PBS. For formaldehyde (FA) crosslinking, the cells were incubated with PBS buffer containing 1% FA for 20 min at r.t., and the crosslinking reaction was terminated by washing in PBS containing 100 mM glycine. The cells were then lysed and subject to 8% SDS-PAGE analysis. For DTSSP crosslinking of proteins in mitochondrial fractions, isolated mitochondria samples were suspended in the mitochondrial lysis buffer (250 mM sucrose, 20 mM HEPES-NaOH, pH 7.5, 10 mM KCl, 1.5 mM MgCl2, 1 mM EDTA, 1 mM EGTA and protease inhibitor). An equal amount of crude mitochondria was incubated at 30° C. in the presence of 0.5 mM DTSSP. […]
# Drp1/ATAD3A = target: T2, Drp1/ATAD3A (Mus musculus, UniProt Q925I1); test: Immunoprecipitation of Drp1/ATAD3A binding in mouse striatal cells; type: cell-based
# T2 construct: The total lysates of cells or mouse striatum were subject to IP analysis; endogenous in cells; host or cells: HdhQ7 / HdhQ111 mouse striatal cells; wild-type mouse striatal cells exposed to 3-NP
# T2 sequence (Q925I1 2-591 limits assumed): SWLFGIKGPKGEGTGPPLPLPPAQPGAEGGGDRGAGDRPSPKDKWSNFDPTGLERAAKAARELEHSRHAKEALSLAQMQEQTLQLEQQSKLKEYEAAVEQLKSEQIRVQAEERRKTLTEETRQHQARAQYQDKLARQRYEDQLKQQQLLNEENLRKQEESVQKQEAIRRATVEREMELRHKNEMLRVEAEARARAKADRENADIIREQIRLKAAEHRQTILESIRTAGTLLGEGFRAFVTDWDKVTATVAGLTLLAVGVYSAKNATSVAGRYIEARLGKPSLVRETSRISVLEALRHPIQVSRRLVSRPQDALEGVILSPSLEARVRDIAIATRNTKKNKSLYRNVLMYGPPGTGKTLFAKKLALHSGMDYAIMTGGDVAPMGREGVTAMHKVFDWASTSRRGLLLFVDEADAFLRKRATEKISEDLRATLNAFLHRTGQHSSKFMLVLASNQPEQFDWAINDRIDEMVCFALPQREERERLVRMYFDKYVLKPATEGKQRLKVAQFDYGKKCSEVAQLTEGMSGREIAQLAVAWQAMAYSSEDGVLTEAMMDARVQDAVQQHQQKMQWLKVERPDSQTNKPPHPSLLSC
# Experimental: Cells and mouse brain tissues were harvested and lysed in total lysis buffer ([…], pH 7.9, […], […], 1% Triton X-100, and protease inhibitor cocktail) for 30 mins on ice and centrifuged at 12,000×g for 10 min at 4° C. The supernatants were incubated with the indicated primary antibodies or control IgG (sc-2025 and sc-2027, Santa Cruz Biotechnology) overnight at 4° C., followed by incubation with protein A/G beads (sc-2003, Santa Cruz Biotechnology) for 2 h at 4° C. The immunoprecipitates were washed with lysis buffer three times for a total of 30 min and then subject to WB analysis.
Molecule,ATAD3A dimerization (ATAD3A),"interaction between Drp1 and ATAD3A (Drp1/ATAD3A; wildtype mouse striatal cells, 3-NP 5 mM for 4 h)","binding of Drp1/ATAD3A (Drp1/ATAD3A; HdhQ111 cells, peptide 1 μM/day for 4 days, vs TAT)"
"O=C(O)CC[N+](=O)[O-] [3-NP, 3-nitropropionic acid, reference compound]",increased,induced,–
"YGRKKRRQRRR-GG-EERRKT-NH2 (YGRKKRRQRRRGGEERRKT-NH2) [DA2, peptide from ATAD3A coiled-coil region homologous to Drp1, conjugated to TAT47-57]",–,–,a trend toward inhibition
